US11311568B2, “Therapeutic pharmaceutical composition for cancer including miRNA” (Purmx Therapeutics, Inc., priority 2017, dated 2022)

What was measured:
[1] = tested on: malignant pleural mesothelioma cell strain EHMES-10; test: Antitumor effect in vivo, intrathoracic orthotopic transplantation model mouse; parameters: species or system mice (C-B-17/Icr-scid/scid Jcl)
Procedure: The tumor suppression effect of miR-3140-3p in vivo was investigated with intrathoracic orthotopic transplantation model mouse.
(§1) Six weeks-old male mice (C-B-17/Icr-scid/scid Jcl) were used as mice. Malignant pleural mesothelioma cell strain EHMES-10 which expresses the luciferase gene was used as the tumor cell.
The experiment protocol is shown below.
(§2) 1: Mice were intraperitoneally administered 0.1 mL per 10 g of body weight of a mixed anesthetic drug of medetomidine hydrochloride, midazolam, and butorphanol tartrate.
(§3) 2: After anesthesia, mouse chest hair was shaved, and an incision was made in the epidermis with scissors.
(§4) 3: In the mouse pleural cavity 100 μL of tumor cells (3×10^7 cells/mL) was transplanted with a 27 G syringe for insulin.
4: Three days after transplantation, imaging of tumor cells was performed with IVIS Spectrum CT In vivo Imaging System.
(§5) 5: After imaging, grouping was performed with successfully transplanted mice.
6: Mice were intraperitoneally administered 0.1 mL per 10 g of body weight of a mixed anesthetic drug of medetomidine hydrochloride, midazolam, and butorphanol tartrate to anesthetize the mice.
7: After anesthesia, 100 μL of miRNA/A6K mixture was administered in the mouse pleural cavity.
8: Imaging was performed every week from the first imaging, and tumor expansion was observed.
9: The time and date of death of the mice was recorded, and mice survival rate was calculated.
The mixed anesthetic drug of medetomidine hydrochloride, midazolam, and butorphanol tartrate was prepared as in Table 4 below. The miRNA/A6K mixture was prepared as in Table 5. Moreover, the control group was administered the RNA shown in Table 6 instead of the miRNA of the present invention.
Note that in order to improve expression efficiency, miRNA was administered as a double-strand in combination with a complementary strand comprising partial mismatch.

[2] = tested on: lung cancer cell strain (A549); test: Cell growth inhibition, cell count after transfection; type: cell-based; details: A549, final concentration 10.0 nM, six days after transfection, FIG. 11
Procedure: miR-3140-3p was transfected into lung cancer cell strain (A549), and cell proliferation was observed. […] Transfection was carried out with the following protocol.
(§6) 1: To a 35 mm dish were added 500 μL of serum free medium (SFM) and 5 μL of RNAiMAX (Invitrogen).
2: To the solution from 1 was added 1 μL each of miR-Control or miR-3140-3p, miR-22-3p, and miR-34a-5p (stock conc. 20 μM) (final concentration 10.0 nM).
(§7) 3: This was incubated at room temperature for 20 minutes.
(§8) 4: 1.5 mL of a cell suspension diluted to 6.7×10^4 cells/mL was added to the 35 mm dish.
(§9) 5: This was incubated at 37° C. under 5% CO2 condition.
6: The cells were counted six days after transfection.

[3] = tested on: large intestine cancer cell strain SW620; test: as above; type: cell-based; details: SW620, final concentration 10.0 nM, seven days after transfection, FIG. 12
Procedure: (§10) miR-3140-3p was transfected into large intestine cancer cell strains (SW620, SW480, and HT29), and cell proliferation was observed. Transfection was carried out with the following protocol.
as §6
(§11) 2: To the solution from 1 was added 12.5 μL each of miR-Control or miR-3140-3p, miR-22-3p, and miR-34a-5p (stock conc. 2 μM) (final concentration 10.0 nM).
as §7, §8, §9
(§12) 6: The cells were counted seven days after transfection.
(§13) Setting the number of control introduction cells as 100%, the survival rate of cells in which miR-3140-3p was introduced was shown in %.

[4] = tested on: large intestine cancer cell strain HT29; test: as above; type: cell-based; details: HT29, final concentration 10.0 nM, seven days after transfection, FIG. 12
Procedure: as §10, §6, §11, §7, §8, §9, §12, §13

[5] = tested on: large intestine cancer cell strain SW480; test: as above; type: cell-based; details: SW480, final concentration 10.0 nM, seven days after transfection, FIG. 12
Procedure: as §10, §6, §11, §7, §8, §9, §12, §13

[6] = tested on: malignant pleural mesothelioma cell strain EHMES-10; test: Comparison of antitumor effect with cisplatin in vivo, pleural cavity transplantation; parameters: species or system mice (C-B-17/Icr-scid/scid Jcl); details: miRNA/A6K in pleural cavity versus cisplatin 6 mg/kg intraperitoneal, EHMES-10 in pleural cavity, FIGS. 30-33
Text: In order to investigate the relative superiority of antitumor effect of miR-3140-3p, the tumor suppression effect of cisplatin which is the first-line drug of malignant pleural mesothelioma and the tumor suppression effect of miR-3140-3p were compared in vivo.
as §1
The protocol is shown below.
as §2, §3, §4
4: Four days after transplantation, imaging of tumor cells was performed with IVIS Spectrum CT In vivo Imaging System.
as §5
6: Mice were intraperitoneally administered 0.1 mL per 10 g of body weight of a mixed anesthetic drug of medetomidine hydrochloride, midazolam, and butorphanol tartrate to anesthetize the mice. […]

[7] = tested on: malignant pleural mesothelioma cells MSTO-211H; test: Antitumor effect in vivo, subcutaneous transplantation of MSTO-211H cells; parameters: species or system SCID mouse; details: SCID mice, MSTO-211H subcutaneous, miRNA with A6K at tumor site, 13 administrations, 34 days after transplantation, FIG. 13
Procedure: In order to verify the antitumor effect of the miRNA of the present invention in vivo, experiments was performed with laboratory animals transplanted with malignant pleural mesothelioma cells.
Malignant pleural mesothelioma cells MSTO-211H cells were used.
1: The cells on the dish were washed twice with PBS (-).
2: The cells were detached with trypsin.
3: This was suspended in a medium, and cells were counted.
4: Centrifugation at a condition of 1000 rpm for 3 min was performed to pellet down.
5: The cells were resuspended in PBS (-) in order to obtain 2.0×10^7 cells/mL.
Six weeks-old C-B-17/Icr-scid/scid Jcl (SCID mouse) were used as mice. SCID mice were subcutaneously administered 100 μL of the prepared cell suspension, and the cells were allowed to settle.
Negative control which is the control sequence and miR-3140-3p which is the miRNA of the present invention were employed. A6K (from 3D Matrix) was employed as the nucleic acid delivery reagent. The administration of miRNA to mice was carried out with the following protocol.
1: 100 μM of the nucleic acid (miRNA) was diluted with 10% saline and sterilized water in order to obtain 71.4 μM.
2: 1% A6K solution was sonicated for 5 minutes before use.
3: The diluted nucleic acid and the 1% A6K solution were mixed at a proportion of 1:1 to give the administration nucleic acid. […]

With “miR-3140-3p: Mature-miRNA, AGCUUUUGGGAAUUCAGGUAGU (SEQ ID NO. 2) (listed as RNA, chemistry not given here; listed as Homo sapiens)” the “tumor reduction by imaging” value ([1]; one administration of miRNA/A6K in pleural cavity, 3.2 nmol (45 μg) per mouse, Day 10 to Day 24 after transplantation, FIG. 20) was “tumor reduction was seen”, the “tumor expansion (imaging results digitized)” value ([1]; one administration of miRNA/A6K in pleural cavity, FIG. 21) was “significantly suppressed tumor expansion” and the “survival rates of mice” value ([1]; one administration of miRNA/A6K in pleural cavity, FIG. 22) was “survival rates of mice had improved”. For the same substance, the “survival rates of mice” value ([1]; three administrations of miRNA/A6K in pleural cavity, FIG. 28) was “more improved”, the “suppression of malignant pleural mesothelioma (imaging, survival)” value ([1]; three administrations of miRNA/A6K in pleural cavity, FIGS. 26-28) was “significantly suppressed malignant pleural mesothelioma” and the “suppression of malignant pleural mesothelioma (imaging, survival)” value ([1]; two administrations of miRNA/A6K in pleural cavity, FIGS. 23-25) was “significantly suppressed malignant pleural mesothelioma”. For the same substance, the “cell growth inhibition effect (cell count)” value [2] was “extremely high cell growth inhibition effect”, the “cell growth inhibition effect (survival rate of cells, control = 100%)” value [3] was “extremely high cell growth inhibition effect” and the “cell growth inhibition effect (survival rate of cells, control = 100%)” value [4] was “extremely high cell growth inhibition effect”. For the same substance, the “cell growth inhibition effect (survival rate of cells, control = 100%)” value [5] was “extremely high cell growth inhibition effect”, the “antitumor effect (tumor suppression, survival rates) compared with cisplatin” value [6] was “equivalent or higher compared to cisplatin” and the “tumor weight at endpoint compared to the control group” value [7] was “significantly lower”.
